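Each compound was tested at five concentrations against cells in 96-well plates for 48 hours. TGI marks complete inhibition of growth.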 Where only a bound is given, the exact number is not on record here.

Holding throughout (assay): NCI-60 cell line screen, 48 h
The subject of assay [1] is CAKI-1 renal.
In assay [2] the test system is HCT-15 colon.
Assay [3] concerns M14 melanoma.
In assay [4] the test system is MCF7 breast.
Assay [5] concerns MDA-MB-435.
Assay [6] concerns NCI-H460 lung.
Assay [7] deals with OVCAR-4 ovarian.
The test system of assay [8] is OVCAR-5 ovarian.
The subject of assay [9] is SF-268 CNS.
Assay [10] relates to SF-539 CNS.
Assay [11] has as its system SK-MEL-28 melanoma.
Assay [12] has as its system SK-OV-3 ovarian.

For the compound `C=CCCCCOC1C=CC(OC(C)=O)C(COC(C)=O)O1` (centres undefined), the TGI in assay [1], in assay [2], in assay [3], in assay [4], in assay [5] and in assay [6] was over 100 µM throughout. Moreover, the TGI in assay [7], in [8], in [9], in assay [10], in [11] and in assay [12] was over 100 µM throughout.

As to `CCCCCCc1nn2c(-c3ccc(C)cc3)nnc2s1`, the TGI in assay [1], in assay [2], in [3], in assay [4], in assay [5] and in [6] was over 100 µM in each case. For the same compound, the TGI in assay [7], in [8], in assay [9], in [10], in assay [11] and in assay [12] was over 100 µM each time.

As to `O=c1oc2ncccc2n1Cc1ccc([N+](=O)[O-])cc1`, the TGI in [1], in assay [2], in [3], in assay [4], in assay [5] and in assay [6] was over 100 µM throughout. Further, the TGI in assay [7], in assay [8], in [9], in assay [10], in assay [11] and in [12] was over 100 µM throughout.

As to `COc1cc(N=C(N)N=C(N)N)c2ncccc2c1`, the TGI in assay [1], in assay [2], in assay [3], in assay [4], in assay [5] and in assay [6] was over 100 µM in each case. Also, the TGI in [7], in assay [8], in [9], in assay [10], in [11] and in assay [12] was over 100 µM in each case.

Turning to `CCN(CC)CCN1c2ccccc2Sc2ccc3ccccc3c21`, the TGI in assay [1] is 22.7 µM; in assay [2] it was 22.1 µM; in assay [3] it was 8.52 µM; in assay [4], 23.6 µM; in assay [5], 21.2 µM; in assay [6], 6.42 µM. Besides, the TGI in assay [7] is 17 µM; in assay [8] it was 23 µM; in [9], 35.1 µM; in assay [10], 29.7 µM; in [11] it was 20.2 µM; in assay [12], 29.4 µM.

For the compound `Cc1csc2c(P(=O)(OC(C)C)OC(C)C)c(-c3ccccc3)cn12`, the TGI in assay [1] came out at 43.4 µM; in assay [2], 31.6 µM; in assay [3], 34.7 µM; in assay [4] it was 34.3 µM; in assay [5], 37.7 µM; in assay [6], 30.1 µM. Further, the TGI is 33 µM in [7]; 28.8 µM in [8]; 32 µM in assay [9]; 32.9 µM in [10]; 32.9 µM in assay [11]; 33 µM in assay [12].

Consider `COC(=O)N1CC[C@@H]2CCC=C(c3cccc4c3OCO4)[C@@H]21`, for which the TGI in assay [1], in [2], in [3], in assay [4], in assay [5] and in [6] was over 100 µM each time. The TGI in [7], in assay [8], in assay [9], in [10], in assay [11] and in assay [12] was over 100 µM throughout.

Regarding `CC1=C(C)C(=O)OC(C(C)(O)C2(O)CCC3(O)C4CC(Cl)C5(O)C(O)C=CC(=O)C5(C)C4CCC32C)C1` (centres undefined), the TGI in [1], in assay [2], in [3], in [4], in assay [5] and in [6] was over 100 µM in each case. In addition, the TGI in assay [7], in [8], in assay [9], in [10], in assay [11] and in [12] was over 100 µM throughout.

For the compound `O=C(CSc1nc2ccc(I)cc2c(=O)n1Cc1ccccc1)N/N=C/c1ccccc1`, the TGI was 23 µM in assay [1]; over 100 µM in [2]; over 100 µM in assay [3]; over 100 µM in assay [4]; over 100 µM in [5]; over 100 µM in assay [6]. Further, the TGI in [7] is over 100 µM; in [8], over 100 µM; in assay [9], 32.4 µM; in assay [10], over 100 µM; in [11], over 100 µM; in assay [12], 31.6 µM.

As to `O=C1C(NS(=O)(=O)c2ccccc2)=C(n2cnc3ccccc32)C(=O)c2ccccc21`, the TGI in assay [1], in assay [2], in assay [3], in assay [4], in assay [5] and in assay [6] was over 100 µM throughout. Further, the TGI in assay [7], in assay [8], in assay [9], in assay [10], in [11] and in assay [12] was over 100 µM throughout.

As to `COc1cc(/C=C2\C(=O)N(c3cccc(Cl)c3)C(c3ccccc3)S2(=O)=O)cc(OC)c1OC` (centres undefined), the TGI in [1], in [2], in assay [3], in assay [4], in assay [5] and in [6] was over 100 µM each time. For the same compound, the TGI in assay [7], in assay [8], in [9], in [10], in assay [11] and in assay [12] was over 100 µM each time.

Regarding `CCOC(=O)C(Cc1ccc2c(c1)CCC2)(Cc1ccc2c(c1)CCC2)C(=O)OCC`, the TGI in assay [1], in assay [2], in assay [3], in assay [4], in assay [5] and in assay [6] was over 100 µM each time. For the same compound, the TGI in assay [7], in assay [8], in assay [9], in [10], in [11] and in [12] was over 100 µM throughout.
